What all share (format): binding
Test [1] concerns α-casein (phosphorylated), β-casein (phosphorylated), pepsin (phosphorylated). As to the kind of experiment: 10% native-polyacrylamide gel electrophoresis, gel stained and imaged by fluoro image analyzer (Experimental Example 3). The note with it: ten protein samples. Here is the method: First, prepared were gels for electrophoresis, pH buffer for electrophoresis, and a coloring solution for dissolving samples under the same condition as in Experimental Example 1.
Next, 2 μg each of 1: Bovine Serum Albumin, 2: Human Serum Albumin, 3: carbonic anhydrase, 4: β-galactosidase, 5: α-casein (phosphorylated), 6: α-casein (de-phosphorylated), 7: β-casein (phosphorylated), 8: β-casein (de-phosphorylated), 9: pepsin (phosphorylated), and 10: pepsin (de-phosphorylated) was dissolved in the coloring solution to prepare samples. The respective samples were plotted on the gel. Then, a constant electric current of 40 mA was applied until the coloring marker was flowed.
The obtained gel was immersed in a 10 mM Tris-acetate buffer (pH=7.4) containing 1 μM of N,N,N′-tri(2-pyridylmethyl)-N′-[5-N″-(2-N-5-fluoresceinylthioureidoethyl)carbamoyl-2-pyridylmethyl]-1,3-diamopropane-2-ol obtained in Production Example 8-1 and 100 μM zinc acetate for 30 minutes. Thereafter, the gel was taken out from the solution. This gel was washed with 100 mL of 10 mM Tris-acetate buffer (pH=7.4) for 10 minutes twice. Thereafter, a fluorescent image of the gel was photographed by using a fluoro image analyzer FLA-5000 (Fuji Photo Film Co., Ltd.) at an excitation wavelength of 473 nm with use of a fluorescence detecting filter of 510 nm. […]

Test [2] deals with inventive complex compound (compound of Production Example 3-1 + zinc acetate) bonded to Streptavidin agarose. As to the kind of experiment: Selective adsorption of peptides on Streptavidin agarose carrying the inventive zinc complex, fractions quantified by HPLC (Experimental Example 2). The note with it: for isolation/recovery rate of the peptide to the total amount, fraction 1: filtrate of sample in 5.0 mM Tris-acetate buffer pH 7.4; for isolation/recovery rate of the peptide to the total amount, fraction 1 / isolation/recovery rate of the peptide to the total amount, fraction 5 / isolation/recovery rate of the peptide to the total amount, fraction 2 / isolation/recovery rate of the peptide to the total amount, fraction 6 / isolation/recovery rate of the peptide to the total amount, fraction 3 / isolation/recovery rate of the peptide to the total amount, fraction 4: agarose with zinc complex of Production Example 3-1; for isolation/recovery rate of the peptide to the total amount, fraction 5: first filtration with 1.0 mM phosphoric acid-sodium hydroxide buffer pH 7.4, 0.50M NaNO3; for isolation/recovery rate of the peptide to the total amount, fraction 2: first filtration with 5.0 mM Tris-acetate buffer pH 7.4, 0.50M NaNO3; for isolation/recovery rate of the peptide to the total amount, fraction 6: second filtration with 1.0 mM phosphoric acid-sodium hydroxide buffer pH 7.4, 0.50M NaNO3; for isolation/recovery rate of the peptide to the total amount, fraction 3: second filtration with 5.0 mM Tris-acetate buffer pH 7.4, 0.50M NaNO3; for isolation/recovery rate of the peptide to the total amount, fraction 4: third filtration with 5.0 mM Tris-acetate buffer pH 7.4, 0.50M NaNO3. As to the method: (§1) The suspension (0.3 mL) containing Streptavidin agarose (quantity of the bonded moiety of biotin: 60 to 120 nmol/mL) and a buffer (Sigma-Aldrich Co.) was charged in a centrifugal filter unit (volume: 0.5 mL filter pore diameter: 0.22 μm). The filter unit was subjected to centrifugal separation at centrifugal acceleration of 2,000×g for 15 seconds, followed by filtration of the suspension. 5.0 mM Tris-acetate buffer (pH=7.4, 0.30 mL) was charged in the filter unit, then the filter unit was subjected to centrifugal separation at 2,000×g for 15 seconds and filtration for washing. This centrifugal separation and filtration step for washing was cyclically repeated for 5 times.
To the filter unit, charged was 5.0 mM Tris-acetate buffer (pH=7.4, 0.30 mL) dissolving 120 nmol/mL of the compound obtained in Production Example 3-1 and 500 nmol/mL of zinc acetate. The filter unit was brought to an equilibrium state for 5 minutes, and then, subjected to centrifugal separation at 2,000×g for 15 seconds and filtration. Next, 5.0 mM Tris-acetate buffer (pH=7.4, 0.30 mL) was charged in the filter unit, and subjected to centrifugal separation at 2,000×g for 15 seconds and filtration for washing. This centrifugal separation and filtration step for washing was cyclically repeated for 5 times. Further, 5.0 mM Tris-acetate buffer (pH=7.4, 0.30 mL) dissolving 10 nmol/mL of zinc acetate was charged in the filter unit, and subjected to centrifugal separation at 2,000×g for 15 seconds and filtration for washing. This centrifugal separation and filtration step for washing was cyclically repeated for 5 times.
To the filter unit, charged was 5.0 mM Tris-acetate buffer (pH=7.4, 0.30 mL) dissolving non-phosphorylated peptide p60c (p60c-src peptide 521–533, 14 nmol/mL) and phosphorylated peptide P-p60c (O-phosphoryl p60c-src peptide 521–533, 12 nmol/mL), as samples. The filter unit was brought to an equilibrium state for 5 minutes, and then, subjected to centrifugal separation at 2,000×g for 15 seconds and filtration. The obtained filtrate was taken out as a fraction 1.
Next, 5.0 mM Tris-acetate buffer (pH=7.4, 0.50M NaNO3, 0.30 mL) was charged in the filter unit, and the filter unit was subjected to centrifugal separation at 2,000×g for 15 seconds and filtration for 3 times. The filtrate obtained after the first filtration was taken out as a fraction 2, the filtrate after the second filtration was taken out as a fraction 3, and the filtrate after the third filtration was taken out as a fraction 4.
Furthermore, 1.0 mM buffer containing phosphoric acid-sodium hydroxide (pH=7.4, 0.50M NaNO3, 0.30 mL) was charged in the filter unit, and the filter unit was subjected to centrifugal separation at 2,000×g for 15 seconds and filtration for 2 times. The filtrate obtained after the first filtration was taken out as a fraction 5, and the filtrate after the second filtration was taken out as a fraction 6.
The contents of the peptide in the respective fractions 1 through 6 were quantitatively determined by high performance liquid chromatography (HPLC).
(§2) Analyzing conditions according to HPLC: • column: Capcell Pak C18 type UG80, 4.6 mm (diameter)×150 mm • mobile phase: acetonitrile:water=14:86(v/v), 0.1%(v/v) of trifluoroacetic acid • flow rate: 1 mL/min. • column temperature: 40° C. • detecting method: UV 266 nm • retention time: P-p60c (5.3 min.). p60c (13.4 min.)

The target in a further test is T1, Streptavidin agarose (Streptomyces avidinii, UniProt P22629).
T1 construct: purchased Sigma-Aldrich Co
T1 sequence (P22629 25-183): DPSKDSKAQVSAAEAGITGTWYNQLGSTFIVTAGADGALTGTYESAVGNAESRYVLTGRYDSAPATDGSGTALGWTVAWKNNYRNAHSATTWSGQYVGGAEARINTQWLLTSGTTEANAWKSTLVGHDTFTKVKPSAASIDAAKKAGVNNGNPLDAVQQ
Nature of the test: Same fractionation on Streptavidin agarose without the inventive complex compound (Comparative Example 1). The note with it: inventive complex compound not included; for isolation/recovery rate of the peptide, fraction 7: step as fraction 1 (sample filtrate, Tris-acetate pH 7.4); for isolation/recovery rate of the peptide, fraction 8: step as fraction 2 (Tris-acetate, 0.50M NaNO3, first); for isolation/recovery rate of the peptide, fraction 9: step as fraction 3 (Tris-acetate, 0.50M NaNO3, second); for isolation/recovery rate of the peptide, fraction 10: step as fraction 4 (Tris-acetate, 0.50M NaNO3, third); for isolation/recovery rate of the peptide, fraction 11: step as fraction 5 (phosphate buffer, first); for isolation/recovery rate of the peptide, fraction 12: step as fraction 6 (phosphate buffer, second). As to the method:
as §2
as §1, with “of biotin;” for “of biotin:”, “0.5 mL,” for “0.5 mL”, “at” for “at centrifugal acceleration of”, “suspension. Then,” for “suspension.”, “unit, and” for “unit, then”
A process similar to the process in Experiment Example 2 was conducted with use of samples equivalent to the samples used in Experimental Example 2, using a filter unit (in this Comparative Example, the inventive complex compound was not included). Thus, fractions 7 through 12 were obtained.
HPLC analysis was conducted with respect to the fractions 7 through 12 in a similar manner as Experimental Example 2.

No end group written: not given here.

For `O=C(NCCNC(=S)Nc1ccc(-c2c3ccc(=O)cc-3oc3cc(O)ccc23)c(C(=O)O)c1)c1ccc(CN(Cc2ccccn2)CC(O)CN(Cc2ccccn2)Cc2ccccn2)nc1` (stereo not drawn) [Production Example 8-1, N,N,N′-Tri(2-pyridylmethyl)-N′-[5-N″-(2-N-5-fluoresceinylthioureidoethyl)carbamoyl-2-pyridylmethyl]-1,3-diaminopropane-2-ol], in test [1] (1 μM compound + 100 μM zinc acetate, 10 mM Tris-acetate pH 7.4, 30 minutes, excitation 473 nm, FIG. 9 gel A), the “identification (fluorescent labeling) of proteins in the gel” value was “only 5: α-casein (phosphorylated), 7: β-casein (phosphorylated) and 9: pepsin (phosphorylated) to all of which the phosphoric acid has been bonded were identified exclusively”.

As for Coomassie brilliant blue, the “dyeing of proteins in the gel by the conventional dyeing process” value in test [1] (same gel, FIG. 9 gel B) is recorded as “all the peptides were dyed”.

As for “N,N,N′-Tri(2-pyridylmethyl)-N′-[5-N″-2-(6-D-biotinamidohexacarboxyamidoethyl)carbamoyl-2-pyridylmethyl]-1,3-diaminopropane-2-ol [Production Example 3-1]”, the “selective adsorption of phosphorylated peptide” value in test [2] (mixed sample of P-p60c and p60c, complex formed with zinc acetate, bonded to Streptavidin agarose) is “can adsorb selectively a phosphorylated peptide”.

As for “P-p60c: phosphorylated peptide P-p60c (O-phosphoryl p60c-src peptide 521–533) (DYFTSTEPQYQPG; also: O-phosphotyrosine, position not given here; UniProt P12931 521-533, looked up, fragment)”, in the test with Streptavidin agarose, the “isolation/recovery rate of the peptide, fraction 7” value stood at 83%; the “isolation/recovery rate of the peptide, fraction 8” value came out at 17%; the “isolation/recovery rate of the peptide, fraction 9” value stood at 0%; the “isolation/recovery rate of the peptide, fraction 10” value stood at 0%. Besides, in the test with Streptavidin agarose, the “isolation/recovery rate of the peptide, fraction 11” value worked out at 0% and the “isolation/recovery rate of the peptide, fraction 12” value worked out at 0%. Moreover, in test [2], the “isolation/recovery rate of the peptide to the total amount, fraction 1” value was 0%; the “isolation/recovery rate of the peptide to the total amount, fraction 5” value is recorded as 83%; the “isolation/recovery rate of the peptide to the total amount, fraction 2” value was 0%; the “isolation/recovery rate of the peptide to the total amount, fraction 6” value was 17%. In addition, in test [2], the “isolation/recovery rate of the peptide to the total amount, fraction 3” value is 0% and the “isolation/recovery rate of the peptide to the total amount, fraction 4” value is reported as 0%.

Consider “p60c: non-phosphorylated peptide p60c (p60c-src peptide 521–533) (DYFTSTEPQYQPG; UniProt P12931 521-533, looked up, fragment)”, for which, in the test with Streptavidin agarose, the “isolation/recovery rate of the peptide, fraction 7” value is 75%; the “isolation/recovery rate of the peptide, fraction 8” value is recorded as 20%; the “isolation/recovery rate of the peptide, fraction 9” value turned out to be 5%; the “isolation/recovery rate of the peptide, fraction 10” value is listed as 0%. In addition, in the test with Streptavidin agarose, the “isolation/recovery rate of the peptide, fraction 11” value was 0% and the “isolation/recovery rate of the peptide, fraction 12” value is reported as 0%. In addition, in test [2], the “isolation/recovery rate of the peptide to the total amount, fraction 1” value was determined as 67%; the “isolation/recovery rate of the peptide to the total amount, fraction 5” value came to 0%; the “isolation/recovery rate of the peptide to the total amount, fraction 2” value came to 24%; the “isolation/recovery rate of the peptide to the total amount, fraction 6” value is 0%. For the same compound, in test [2], the “isolation/recovery rate of the peptide to the total amount, fraction 3” value turned out to be 9% and the “isolation/recovery rate of the peptide to the total amount, fraction 4” value was found to be 0%.

The values are drawn from patent US7202093B2, “Method for labeling phosphorylated peptides, method for selectively adsorbing phosphorylated peptides, complex compounds used in the methods, process for producing the complex compounds, and raw material compounds for the complex compounds” (Kabushiki Kaisha Nard Kenkyusho, priority 2003, dated 2007).
